Assay results reported in patent publication US20110152166A1, “METHOD OF MODULATION OF PROTEIN PHOSPHORYLATION-DEPENDENT CONFORMATIONAL TRANSITIONS WITH LOW MOLECULAR WEIGHT COMPOUNDS” (priority 2006, published 2011).

Experiments:
[1] = molecular target: T1, PDK1[Val127Leu] activation of SGK1 [Ser422Asp] (Homo sapiens, UniProt O15530, V127L); assay: SGK activation by PDK1[Val127Leu] in vitro; format: biochemical; details: compound 60 μM
T1 construct: GST (N); made in house; host or cells: HEK293
Method: (§1) FIG. 4—Small compounds designed to bind the HM/PIF-pocket of PDK1 can block the PDK1-dependent phosphorylation and activation of substrates that require docking to the HM/PIF-pocket of PDK1. (A) Effect of compound 1 (100 and 200 μM) on PDK1 phosphorylation of its substrate S6K1. The phosphorylation reaction was performed in vitro with [γ^32P]ATP and then separated on SDS-PAGE followed by exposure to phosphorimager. The radioactive band corresponding to phosphorylated GST-56K1-T2[Thr412Glu] (S6K[412E]) is indicated. (B) PDK1 or PDK1[Val127Leu] (PDK1[V127L]) were pre-incubated with GST-[…]N-SGK1 [Ser422Asp] […] (C) The activity of S6K was measured in vitro after glutathione sepharose purification; aliquots of purified proteins were separated on SDS-PAGE and the level of activation loop phosphorylation was visualized by immunoblotting using phospho-specific antibodies that recognize the phosphorylated activation loop, followed by stripping of the membranes and re-probing with anti-GST to verify the presence of equal amounts of protein. (D) Cells overexpressing GST-56K1-T2[Thr412Glu] were treated as in (C) but S6K activity was measured in vitro after immunoprecipitation of the GST-fusion protein with anti-GST antibodies; the level of S6K expression was analysed by western-blotting of crude extracts. […]

[2] = molecular target: T2, PDK1 (Homo sapiens, UniProt O15530); assay: PDK1 thermal denaturation; details: data not shown
T2 sequence (O15530 1-556): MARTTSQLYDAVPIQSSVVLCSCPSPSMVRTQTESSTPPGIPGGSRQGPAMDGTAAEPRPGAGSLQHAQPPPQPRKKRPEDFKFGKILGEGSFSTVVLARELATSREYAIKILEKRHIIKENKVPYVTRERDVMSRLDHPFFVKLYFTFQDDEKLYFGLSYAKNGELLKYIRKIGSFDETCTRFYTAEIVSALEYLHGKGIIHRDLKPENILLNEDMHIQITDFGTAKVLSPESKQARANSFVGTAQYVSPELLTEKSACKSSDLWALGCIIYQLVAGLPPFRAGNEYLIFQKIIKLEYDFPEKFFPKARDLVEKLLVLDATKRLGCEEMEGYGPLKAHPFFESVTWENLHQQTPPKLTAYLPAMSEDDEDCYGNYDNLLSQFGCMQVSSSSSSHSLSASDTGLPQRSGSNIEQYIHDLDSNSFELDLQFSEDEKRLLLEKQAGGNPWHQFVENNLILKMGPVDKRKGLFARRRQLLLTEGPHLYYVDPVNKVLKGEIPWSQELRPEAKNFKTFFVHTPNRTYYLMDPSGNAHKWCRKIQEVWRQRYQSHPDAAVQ

[3] = molecular target: T3, PDK1 phosphorylation of GST-S6K1-T2[Thr412Glu] (Homo sapiens, UniProt O15530); assay: PDK1 phosphorylation of substrate S6K1 in vitro; format: biochemical; details: compound 100 and 200 μM
T3 construct: GST (N); made in house; host or cells: HEK293
Method: as §1

[4] = molecular target: T2, PDK1; assay: PDK1 kinase activity with S6K tail peptides; format: biochemical
Method: FIG. 21 (A) Aliquots of S6K1 protein from bar 1, 2, 5 and 6 in FIG. 5B were subjected to immunoblotting with phosphorylation site specific Ab against the activation loop or anti-HA Ab. (B) The kinase activity of PKB<143-479, prephosphorylated by PDK1 in the activation loop, was determined in the presence of increasing concentrations of synthetic PRK2 tail peptides encompassing the HM, which were either nonphosphorylated (PIFtide) or phosphorylated at the tail site (pT958-PIFtide). […] (C) The kinase activity of purified PDK1 was determined in the presence of increasing concentrations of synthetic S6K tail peptide (residues 366-395) that was either phosphorylated at T389 (S371/pT389) or phosphorylated at both 5389 and 5371 (pS371/pT389). Kinase activity is expressed as percent, and data are means+/−SD of 3 independent experiments. (D) Synthetic S371/pT389 S6K tail peptide and pS371/pT389 S6K tail peptide were biotinylated and used to coat streptavidin Sensor Chips. PDK150-360 was injected at different concentrations (0.05-5.4 mM) onto the peptide coated chips. In the inserts, the kinetic constants were obtained by fitting the data to a hyperbola using kaleidagraph software. Representative results from one of several experiments are shown.

T1 sequence (O15530 whole entry V127L): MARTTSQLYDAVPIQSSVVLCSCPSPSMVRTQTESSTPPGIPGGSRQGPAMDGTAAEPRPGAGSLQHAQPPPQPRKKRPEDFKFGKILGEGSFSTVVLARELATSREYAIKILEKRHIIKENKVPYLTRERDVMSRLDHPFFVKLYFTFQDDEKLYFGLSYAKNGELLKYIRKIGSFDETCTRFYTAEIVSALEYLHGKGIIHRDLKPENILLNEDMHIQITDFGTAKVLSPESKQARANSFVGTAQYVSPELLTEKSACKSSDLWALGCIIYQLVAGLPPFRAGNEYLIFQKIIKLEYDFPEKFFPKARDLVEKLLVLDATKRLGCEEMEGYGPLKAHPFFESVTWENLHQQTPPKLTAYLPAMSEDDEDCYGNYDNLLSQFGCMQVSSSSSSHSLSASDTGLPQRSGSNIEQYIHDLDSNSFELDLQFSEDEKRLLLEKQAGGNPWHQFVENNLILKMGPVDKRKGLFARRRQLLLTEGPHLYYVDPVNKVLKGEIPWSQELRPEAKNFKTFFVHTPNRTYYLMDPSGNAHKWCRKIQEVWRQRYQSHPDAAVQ

| Compound | SGK activation by PDK1[Val127Leu] (in words) [1] | stabilization of PDK1 to thermal denaturation (in words) [2] | PDK1-catalyzed phosphorylation of S6K1 (in words) [3] | activation of PDK1 by tail peptide (in words) [4] |
| --- | --- | --- | --- | --- |
| O=C(O)CSC(CC(=O)c1ccc(Cl)cc1)c1ccccc1 (stereo not shown) [Compound 1] | not inhibited | did not stabilize | decreased |  |
| S371/pT389: synthetic S6K1 tail peptide (residues 366-395) phosphorylated in the HM |  |  |  | activated to the same extent |
